Experimental data as given in patent US20210269434A1, “TRICYCLIC COMPOUNDS AS INHIBITORS OF KRAS” (Incyte Corporation, priority 2020, published 2021).

Target: KRAS G12D (Homo sapiens, UniProt P01116, G12D)
Assay: GDP-GTP exchange assay (KRAS_G12D exchange)
Assay type: biochemical
Settings: bodipy loaded KRAS G12D 2.5 nM; 4 hours incubation after GppNHp-SOS1; read-out: G12D_exchange
Description: Example A. GDP-GTP Exchange Assay
The inhibitor potency of the exemplified compounds was determined in a fluorescence based guanine nucleotide exchange assay, which measures the exchange of bodipy-GDP (fluorescently labeled GDP) for GppNHp (Non-hydrolyzable GTP analog) to generate the active state of KRAS in the presence of SOS1 (guanine nucleotide exchange factor). Inhibitors were serially diluted in DMSO and a volume of 0.1 μL was transferred to the wells of a black low volume 384-well plate. 5 μL/well volume of bodipy-loaded KRAS G12C diluted to 5 nM in assay buffer (25 mM Hepes pH 7.5, 50 mM NaCl, 10 mM MgCl2 and 0.01% Brij-35) was added to the plate and pre-incubated with inhibitor for 2 hours at ambient temperature. Appropriate controls (enzyme with no inhibitor or with a G12C inhibitor (AMG-510)) were included on the plate. The exchange was initiated by the addition of a 5 μL/well volume containing 1 mM GppNHp and 300 nM SOS1 in assay buffer. The 10 μL/well reaction concentration of the bodipy-loaded KRAS G12C, GppNHp, and SOS1 were 2.5 nM, 500 uM, and 150 nM, respectively. The reaction plates were incubated at ambient temperature for 2 hours, a time estimated for complete GDP-GTP exchange in the absence of inhibitor. For the KRAS G12D and G12V mutants, similar guanine nucleotide exchange assays were used with 2.5 nM as final concentration for the bodipy loaded KRAS proteins and with 4 hours and 3 hours incubation after adding GppNHp-SOS1 mixture for G12D and G12V respectively. A cyclic peptide described to selectively bind G12D mutant (Sakamoto et al., BBRC 484.3 (2017), 605-611) or internal compounds with confirmed binding were used as positive controls in the assay plates. Fluorescence intensities were measured on a PheraStar plate reader instrument (BMG Labtech) with excitation at 485 nm and emission at 520 nm.
Either GraphPad prism or XLfit was used to analyze the data. The IC50 values were derived by fitting the data to a four parameter logistic equation producing a sigmoidal dose-response curve with a variable Hill coefficient. Prism equation: Y=Bottom+(Top−Bottom)/(1+10^((Log lC50−X)*Hill slope)); XLfit equation: Y=(A+((B−A)/(1+((X/C)^D)))) where X is the logarithm of inhibitor concentration and Y is the response.

Chain of KRAS G12D (P01116 1-188 isoform P01116-2 G12D): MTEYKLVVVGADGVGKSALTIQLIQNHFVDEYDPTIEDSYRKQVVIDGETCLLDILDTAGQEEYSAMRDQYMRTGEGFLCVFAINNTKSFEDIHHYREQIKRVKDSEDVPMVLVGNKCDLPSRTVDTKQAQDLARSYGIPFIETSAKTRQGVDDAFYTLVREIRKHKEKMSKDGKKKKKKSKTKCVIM

SMILES | IC50 [nM]
Oc1cc(-c2c(Cl)cc3c(nc(N4C5CCC4CNC5)c4ncn([C@H]5[C@H]6CN[C@@H]5C6)c43)c2F)c2ccccc2c1 (single isomer, unassigned) [Example 35a, 4-(1-((endo)-2-azabicyclo[2.1.1]hexan-5-yl)-4-(3,8-diazabicyclo[3.2.1]octan-8-yl)-8-chloro-6-fluoro-1H-imidazo[4,5-c]quinolin-7-yl)naphthalen-2-ol] | 1000 to 5000
CN(C)C1CN(c2nc3c(F)c(-c4cc(O)cc5ccccc45)c(Cl)cc3c3c2ncn3[C@H]2[C@H]3CN[C@@H]2C3)C1 (single isomer, unassigned) [Example 48a, 4-(1-((endo)-2-azabicyclo[2.1.1]hexan-5-yl)-8-chloro-4-(3-(dimethylamino)azetidin-1-yl)-6-fluoro-1H-imidazo[4,5-c]quinolin-7-yl)naphthalen-2-ol] | 100 to 1000
CN(C)C(=O)CCc1nc2c(N3CC(N(C)C)C3)nc3c(F)c(-c4cccc5ccc(F)cc45)c(CCC#N)cc3c2n1C1C2CNC1C2 (single isomer, unassigned) [Example 291b, 3-(1-((endo)-2-azabicyclo[2.1.1]hexan-5-yl)-8-(2-cyanoethyl)-4-(3-(dimethylamino)azetidin-1-yl)-6-fluoro-7-(7-fluoronaphthalen-1-yl)-1H-imidazo[4,5-c]quinolin-2-yl)-N,N-dimethylpropanamide] | ≤ 100
CCc1nc2c(N3CC(N(C)C)C3)nc3c(F)c(-c4cc(O)cc5ccc(F)cc45)c(CCC#N)cc3c2n1C1C2CNC1C2 (single isomer, unassigned) [Example 292b, 3-(1-((endo)-2-azabicyclo[2.1.1]hexan-5-yl)-4-(3-(dimethylamino)azetidin-1-yl)-2-ethyl-6-fluoro-7-(7-fluoro-3-hydroxynaphthalen-1-yl)-1H-imidazo[4,5-c]quinolin-8-yl)propanenitrile] | ≤ 100
CNCCc1nc2c(N3CC(N(C)C)C3)nc3c(F)c(-c4cc(O)cc5ccccc45)c(-c4cn[nH]c4)cc3c2n1C1C2CNC1C2 (single isomer, unassigned) [Example 295b, 4-(1-((endo)-2-azabicyclo[2.1.1]hexan-5-yl)-4-(3-(dimethylamino)azetidin-1-yl)-6-fluoro-2-(2-(methylamino)ethyl)-8-(1H-pyrazol-4-yl)-1H-imidazo[4,5-c]quinolin-7-yl)naphthalen-2-ol] | 100 to 1000
CCc1nc2c(N3CC(N(C)C)C3)nc3c(F)c(-c4cc(O)cc5ccccc45)c(CCC#N)cc3c2n1C1C2CC1N(Cc1ccc[nH]1)C2 (single isomer, unassigned) [Example 296b, 3-(1-((endo)-2-((1H-pyrrol-2-yl)methyl)-2-azabicyclo[2.1.1]hexan-5-yl)-4-(3-(dimethylamino)azetidin-1-yl)-2-ethyl-6-fluoro-7-(3-hydroxynaphthalen-1-yl)-1H-imidazo[4,5-c]quinolin-8-yl)propanenitrile] | ≤ 100
CN(C)C1CN(c2nc3c(F)c(-c4cc(O)cc5ccccc45)c(CCC#N)cc3c3c2nc(CN2CCOCC2=O)n3C2C3CNC2C3)C1 (single isomer, unassigned) [Example 300a, 3-(1-((endo)-2-azabicyclo[2.1.1]hexan-5-yl)-4-(3-(dimethylamino)azetidin-1-yl)-6-fluoro-7-(3-hydroxynaphthalen-1-yl)-2-((3-oxomorpholino)methyl)-1H-imidazo[4,5-c]quinolin-8-yl)propanenitrile] | ≤ 100
CN(C)C1CN(c2nc3c(F)c(-c4cc(O)cc5ccccc45)c(CCC#N)cc3c3c2nc(-c2csc(N4CCNCC4)n2)n3C2C3CNC2C3)C1 (single isomer, unassigned) [Example 302a, 3-(1-((endo)-2-azabicyclo[2.1.1]hexan-5-yl)-4-(3-(dimethylamino)azetidin-1-yl)-6-fluoro-7-(3-hydroxynaphthalen-1-yl)-2-(2-(piperazin-1-yl)thiazol-4-yl)-1H-imidazo[4,5-c]quinolin-8-yl)propanenitrile] | ≤ 100
